Measurements: patent US20190202836A1, “SELECTIVE DUAL INHIBITORS OF PI3 DELTA AND GAMMA PROTEIN KINASES” (Rhizen Pharmaceuticals SA, priority 2014, published 2019)

What was measured:
Female Wistar rats = assay: Assay 8: Lipopolysaccharide-induced rat air pouch model of inflammation; format: in vivo; conditions: Neutrophil, oral, 1, 3 and 10 mg/kg, pouch fluid 6 h after LPS, read-out: ED50, reduction of neutrophil migration into the rat air pouch
Method: Female Wistar rats (175-200 g) were acclimatized for seven days prior to the start of the experiment. Animals were randomly distributed to various groups based on their body weights. Animals were anaesthetised with ether and subcutaneous air pouches were made by injecting 20 ml of sterile air under the skin in the intra-scapular area (day 0) and maintained with a second 10 ml injection of sterile-filtered air on day 4. On day 6, oral treatment was commenced 1 hour prior to induction of inflammation by s.c. injection of LPS solution on day 6. A volume of 5 ml of LPS solution dissolved in sterile saline (100 μg/kg) was injected into each pouch. Samples of pouch fluid were taken at 6 h after administration of LPS by flushing the pouch with 5 ml of sterile saline and withdrawing 4 ml of fluid. The number of leukocytes present in pouch fluid was determined microscopically using a haemocytometer. Differential cell content was determined by microscopic examination of fluid smears stained with Diff-Quik.

PI3K delta = target: T1, PI3K delta (Homo sapiens, UniProt O00329); assay: Assay 4A1: Anti-IgM induced B-cell proliferation; format: cell-based; conditions: isolated human B-cells, 72 hours; read-out: Cellular IC50 PI3K delta (anti-IgM induced human B-cell proliferation)
T1 construct: endogenous in cells; host or cells: isolated human B-cells
T1 sequence (O00329 whole entry): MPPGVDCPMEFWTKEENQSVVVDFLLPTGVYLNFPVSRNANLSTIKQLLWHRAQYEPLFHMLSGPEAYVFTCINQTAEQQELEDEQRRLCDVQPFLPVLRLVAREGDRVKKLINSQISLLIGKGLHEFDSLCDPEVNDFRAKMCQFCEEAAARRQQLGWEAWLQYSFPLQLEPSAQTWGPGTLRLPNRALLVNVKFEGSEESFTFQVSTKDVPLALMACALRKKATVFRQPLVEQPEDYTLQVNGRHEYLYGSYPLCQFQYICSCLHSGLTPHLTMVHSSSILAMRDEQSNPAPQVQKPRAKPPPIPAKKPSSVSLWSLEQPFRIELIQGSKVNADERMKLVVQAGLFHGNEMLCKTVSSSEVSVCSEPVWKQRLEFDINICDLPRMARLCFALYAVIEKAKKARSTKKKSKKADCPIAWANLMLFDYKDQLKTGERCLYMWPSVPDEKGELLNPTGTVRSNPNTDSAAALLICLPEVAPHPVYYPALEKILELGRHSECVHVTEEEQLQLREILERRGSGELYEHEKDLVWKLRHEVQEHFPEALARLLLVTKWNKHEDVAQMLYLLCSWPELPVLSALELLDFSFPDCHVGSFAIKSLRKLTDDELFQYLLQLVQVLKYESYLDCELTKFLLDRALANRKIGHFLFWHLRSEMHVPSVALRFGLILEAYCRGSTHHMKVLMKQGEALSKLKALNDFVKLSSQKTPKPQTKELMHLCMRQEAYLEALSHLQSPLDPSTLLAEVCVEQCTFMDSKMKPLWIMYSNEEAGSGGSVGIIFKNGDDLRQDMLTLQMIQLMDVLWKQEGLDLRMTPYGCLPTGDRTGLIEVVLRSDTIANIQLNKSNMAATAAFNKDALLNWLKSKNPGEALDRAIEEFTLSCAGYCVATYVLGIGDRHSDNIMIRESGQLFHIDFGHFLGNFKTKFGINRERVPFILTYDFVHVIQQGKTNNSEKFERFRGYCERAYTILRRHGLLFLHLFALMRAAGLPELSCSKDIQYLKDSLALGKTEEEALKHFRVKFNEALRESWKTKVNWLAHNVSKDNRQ
T1 sequence (P27986 whole entry partner): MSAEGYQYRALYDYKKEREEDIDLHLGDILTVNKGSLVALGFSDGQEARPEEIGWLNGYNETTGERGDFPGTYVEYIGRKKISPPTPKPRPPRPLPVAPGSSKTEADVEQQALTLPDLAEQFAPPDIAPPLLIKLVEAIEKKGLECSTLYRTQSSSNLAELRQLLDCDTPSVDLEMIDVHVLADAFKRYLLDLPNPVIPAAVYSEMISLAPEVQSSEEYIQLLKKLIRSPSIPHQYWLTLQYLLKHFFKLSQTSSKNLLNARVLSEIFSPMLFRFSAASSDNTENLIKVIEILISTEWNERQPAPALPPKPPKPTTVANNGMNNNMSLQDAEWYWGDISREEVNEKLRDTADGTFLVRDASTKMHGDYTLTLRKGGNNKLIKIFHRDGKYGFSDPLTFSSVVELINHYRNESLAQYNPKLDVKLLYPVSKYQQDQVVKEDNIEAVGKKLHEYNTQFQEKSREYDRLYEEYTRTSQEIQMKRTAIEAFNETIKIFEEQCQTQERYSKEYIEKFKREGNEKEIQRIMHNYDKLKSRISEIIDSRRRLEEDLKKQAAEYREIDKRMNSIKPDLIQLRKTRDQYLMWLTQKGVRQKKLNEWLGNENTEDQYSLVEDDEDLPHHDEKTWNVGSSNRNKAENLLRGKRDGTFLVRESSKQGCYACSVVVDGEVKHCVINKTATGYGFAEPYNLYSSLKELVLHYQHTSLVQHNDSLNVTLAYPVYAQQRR
Method: The objective of this study was to assess the inhibitory potential of Compound A1 on anti-IgM induced human B-cell proliferation.
Isolated B-cells were re-suspended to 1.0×10^6 cells per ml. 100 μl of cell suspension was added to each well of a 96-well plate. Triplicates were maintained.
50 μl of drug dilution was added and mixed well. A DMSO blank and inducer blank were maintained.
The treated plate was incubated for 30 minutes at 37° C., 5% CO2 and then 50 μl of 4× inducer was added and mixed by pipetting.
The plate was incubated at 37° C., 5% CO2 for 72 hours.
Media was aspirated and 150 μl of DMSO was added to dissolve the formazan crystals.
Absorbance was read at A560 and A640 nm.

[1] = system: human whole blood B-cell proliferation (CD19); assay: Assay 6B: Inhibition of LPS induced CD19 in human whole blood; format: cell-based; conditions: diluted human whole blood, 72 hours, read-out: EC50, inhibition of LPS-induced human whole blood B-cell proliferation (CD19 expression)
Method: (§1) The effect of Compound A1 on modulating B-cell receptor (BCR)-activated proliferation of human or mouse B-lymphocytes was determined. CD19 is a protein present on B cells from the earliest recognizable B-lineage cells during development to B-cell blasts but is however lost on maturation to plasma cells. LPS is an endotoxin and a major component of environmental microbes with a potent mitogenic activity on B-cells via the […].
Diluted human whole blood was treated with DMSO or desired concentrations of Compound A1. Samples were induced with LPS 15 minutes after addition of compound and incubated for 72 hours at 37° C. and 5% CO2. Cells positive for CD45 and CD19 were determined by flow cytometry and data are expressed as percentage CD19 positive cells in the total population.

PI3K alpha = target: T2, PI3K alpha (Mus musculus, UniProt P42337); assay: Assay 4A4: PDGF induced Akt phosphorylation in 3T3 cells; format: cell-based; conditions: 3T3 fibroblasts
T2 construct: endogenous in cells; host or cells: 3T3 fibroblasts
T2 sequence (P42337 whole entry): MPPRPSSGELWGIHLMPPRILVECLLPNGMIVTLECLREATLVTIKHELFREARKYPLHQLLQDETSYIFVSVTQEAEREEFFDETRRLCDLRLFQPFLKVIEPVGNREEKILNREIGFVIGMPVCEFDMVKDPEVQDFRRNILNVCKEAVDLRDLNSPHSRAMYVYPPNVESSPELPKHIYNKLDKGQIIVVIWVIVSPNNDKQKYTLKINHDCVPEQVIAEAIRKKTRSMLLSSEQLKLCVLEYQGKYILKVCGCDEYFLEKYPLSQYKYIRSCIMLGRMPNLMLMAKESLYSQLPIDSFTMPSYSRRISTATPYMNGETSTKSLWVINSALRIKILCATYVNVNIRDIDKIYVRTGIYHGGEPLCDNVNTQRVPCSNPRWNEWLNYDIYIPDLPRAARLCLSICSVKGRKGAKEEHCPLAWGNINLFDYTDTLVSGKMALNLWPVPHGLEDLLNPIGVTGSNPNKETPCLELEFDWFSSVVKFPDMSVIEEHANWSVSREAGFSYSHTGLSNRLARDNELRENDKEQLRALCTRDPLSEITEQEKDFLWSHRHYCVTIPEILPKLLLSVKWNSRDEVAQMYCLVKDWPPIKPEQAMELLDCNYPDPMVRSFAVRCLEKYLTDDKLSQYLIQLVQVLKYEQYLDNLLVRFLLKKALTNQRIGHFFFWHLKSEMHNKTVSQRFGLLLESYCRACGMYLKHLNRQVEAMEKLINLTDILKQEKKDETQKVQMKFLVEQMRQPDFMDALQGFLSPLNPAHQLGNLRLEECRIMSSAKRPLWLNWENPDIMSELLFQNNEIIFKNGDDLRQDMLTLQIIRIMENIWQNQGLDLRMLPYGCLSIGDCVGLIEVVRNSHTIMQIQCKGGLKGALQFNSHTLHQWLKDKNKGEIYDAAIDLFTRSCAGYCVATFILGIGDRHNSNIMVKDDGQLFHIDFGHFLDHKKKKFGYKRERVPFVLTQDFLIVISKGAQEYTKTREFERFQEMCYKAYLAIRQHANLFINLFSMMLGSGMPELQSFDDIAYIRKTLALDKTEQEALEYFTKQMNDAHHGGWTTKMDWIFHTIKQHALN
T2 sequence (P26450 whole entry partner): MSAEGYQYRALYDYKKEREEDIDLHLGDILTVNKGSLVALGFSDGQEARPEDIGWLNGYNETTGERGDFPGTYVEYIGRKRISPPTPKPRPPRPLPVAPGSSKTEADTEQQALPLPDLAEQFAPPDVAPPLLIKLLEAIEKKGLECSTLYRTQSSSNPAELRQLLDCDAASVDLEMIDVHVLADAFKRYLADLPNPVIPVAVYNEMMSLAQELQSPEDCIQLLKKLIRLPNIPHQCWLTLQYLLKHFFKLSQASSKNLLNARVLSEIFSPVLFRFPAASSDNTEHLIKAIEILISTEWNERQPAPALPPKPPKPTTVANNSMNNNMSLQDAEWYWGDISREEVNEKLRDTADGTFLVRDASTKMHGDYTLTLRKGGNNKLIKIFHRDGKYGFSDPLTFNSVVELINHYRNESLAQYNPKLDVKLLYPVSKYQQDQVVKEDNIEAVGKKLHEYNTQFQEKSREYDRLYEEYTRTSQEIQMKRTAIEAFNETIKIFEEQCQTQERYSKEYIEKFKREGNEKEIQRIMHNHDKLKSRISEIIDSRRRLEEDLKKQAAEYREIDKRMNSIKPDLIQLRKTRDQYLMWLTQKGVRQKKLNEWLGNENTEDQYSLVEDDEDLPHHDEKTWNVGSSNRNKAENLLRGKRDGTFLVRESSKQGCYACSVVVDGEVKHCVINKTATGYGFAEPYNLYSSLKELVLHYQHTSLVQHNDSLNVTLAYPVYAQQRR
Method: The objective of this study was to determine the effect of Compound A1 on PI3Kα kinase mediated AktS473 phosphorylation in PDGF induced 3T3 fibroblasts. • 3T3 cells were treated with desired concentrations of the test compound for 15 minutes. 1 ml of 2× PDGF was added such that the final concentration was 20 ng/ml and incubated for 10 minutes. • Media was discarded and washed with 1 ml of ice-cold 1× PBS. • 250 μl of cell lysis buffer was added and incubated on ice for 30 minutes. • Samples were centrifuged and supernatant was collected and stored at −80° C. until analysis. • Samples were analyzed by Western Blotting using pAKT (S473) as the primary and anti-rabbit IgG-HRP as a secondary antibody. • Intensity of the bands was determined using ImageJ 1.42q (NIH, USA) and normalized to Actin (loading control). Data was plotted using GraphPad Prism (Version 5.02).

[2] = Metabolic stability in rat liver microsomes; format: in vitro ADME; conditions: 1 μM test item, 60 minutes, 37° C., NADPH
Method: (§2) Metabolic stability studies were conducted on Compounds A, A1, and A2 as well as Example 128 of WO 2012/151525 using mouse, rat, dog, monkey, and human liver microsomes. The protocol for the studies with mouse, rat, and human liver microsomes (all from BD Gentest, USA) is provided below. 0.4 mg protein was preincubated with 2 mM NADPH (cofactor) in phosphate buffer (pH-7.4) for 15 minutes at 37° C. and then added with 1 μM test item and incubated further for 60 minutes in triplicate. The reaction mixture was terminated with methanol containing an internal standard and centrifuged further to analyze the test item remaining in the supernatant by LC-MS/MS. The percent parent compound remaining was calculated in comparison with similar samples terminated at 0 minutes.

[3] = Metabolic stability in monkey liver microsomes; format: in vitro ADME
Method: as §2

[4] = system: mouse whole blood B-cell proliferation (CD45R); assay: Assay 6B: Inhibition of LPS induced CD45R in mouse whole blood; format: cell-based; conditions: diluted mouse whole blood, 72 hours, read-out: EC50, inhibition of LPS-induced mouse whole blood B-cell proliferation (CD45R expression)
Method: as §1
Briefly, diluted mouse whole blood was treated with of DMSO or desired concentrations of Compound A1. Samples were induced with LPS 15 minutes after compound addition, and incubated for 72 hours at 37° C. and 5% CO2. Cells positive for CD45 and CD45R were determined by flow cytometry. Data are expressed as percentage CD45R positive cells in the total population.

[5] = Oral pharmacokinetics in mice; format: in vivo; conditions: mouse, plasma, 10 mg/kg

IC50 (PI3K delta): 11 nM
inhibition of PDGF induced AktS473 phosphorylation at 10 μM (PI3K alpha; 10 μM): No inhibition
IC50 (PI3K alpha; PDGF 20 ng/ml, read-out: Cellular IC50 PI3K alpha (PDGF induced pAKT in 3T3 fibroblasts)): > 10000 nM
Metabolic stability in liver microsomes (percent parent compound remaining), Rat [2]: 94.2%
Metabolic stability in liver microsomes (percent parent compound remaining), Monkey [3]: 78.8%
AUC(0-t) [5]: 7.49 µM·h
Cmax [5]: 3.78 µM
Tmax [5]: 30 min
half-life [5]: 87 min
Structure (SMILES): COc1ccc(-c2nn([C@@H](C)c3oc4cccc(F)c4c(=O)c3-c3cccc(F)c3)c3ncnc(N)c23)cc1NS(C)(=O)=O [Compound A1, (S)—N-(5-(4-amino-1-(1-(5-fluoro-3-(3-fluorophenyl)-4-oxo-4H-chromen-2-yl)ethyl)-1H-pyrazolo[3,4-d]pyrimidin-3-yl)-2-methoxyphenyl)methanesulfonamide]
ED50 (Female Wistar rats): 2.65 mg/kg
EC50 [1]: 118 nM
EC50 [4]: 128 nM
